According to article PMC7997574, “Lead Optimization of Benzoxazolone Carboxamides as Orally Bioavailable and CNS Penetrant Acid Ceramidase Inhibitors” (Journal of Medicinal Chemistry, 2020):
Values after ≈ are worked out from the molar mass of the structure shown.

What was measured:
[1] = Aqueous kinetic solubility assay; assay type: physicochemical; conditions: PBS, pH 7.4
Outline: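 Kinetic solubility from 10 mM MeCN stock spiked into PBS pH 7.4 at 250 μM target, shaken 1 h at 25 °C, then centrifuged. Dissolved compound in supernatant quantified by UPLC/MS with UV at 215 nm; mean of ≥2 experiments.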

[2] = biological target: T1, human fatty acid amide hydrolyase (FAAH) (Homo sapiens, UniProt O00519); assay: Fluorogenic hFAAH assay; assay type: biochemical
T1 construct: expressed in transfected cells
T1 sequence (O00519 1-579): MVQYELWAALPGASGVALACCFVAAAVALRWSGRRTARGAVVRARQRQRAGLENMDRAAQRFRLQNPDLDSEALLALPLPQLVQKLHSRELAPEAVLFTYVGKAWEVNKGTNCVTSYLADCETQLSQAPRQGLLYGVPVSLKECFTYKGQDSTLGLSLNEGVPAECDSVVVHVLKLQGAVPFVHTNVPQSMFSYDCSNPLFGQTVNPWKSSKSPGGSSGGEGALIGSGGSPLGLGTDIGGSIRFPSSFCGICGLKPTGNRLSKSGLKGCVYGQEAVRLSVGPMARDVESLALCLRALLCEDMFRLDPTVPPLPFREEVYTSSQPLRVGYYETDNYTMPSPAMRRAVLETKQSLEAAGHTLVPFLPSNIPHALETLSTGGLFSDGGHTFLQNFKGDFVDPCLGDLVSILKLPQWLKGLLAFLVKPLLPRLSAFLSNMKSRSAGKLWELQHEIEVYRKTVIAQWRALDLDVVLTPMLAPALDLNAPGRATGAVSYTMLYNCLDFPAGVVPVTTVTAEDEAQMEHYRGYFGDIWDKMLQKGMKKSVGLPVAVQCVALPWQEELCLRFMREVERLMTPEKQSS
Description: hFAAH was obtained from a HEK-293 FAAH-1 overexpressing stable cell line. Cells were grown in Dulbecco’s modified Eagle medium (DMEM) containing 10% FBS, 1% penicillin/streptomycin, 1% glutamine, 1 mM sodium pyruvate, and 500 μg mL^–1 G418. Cells were harvested, and pellets were stored at −80 °C until membrane-enriched lysate preparation. The cell pellet was resuspended in 20 mM Tris HCl (pH 7.4, 0.32 M sucrose), sonicated, and centrifuged at 1000 × g (10 min, 4 °C). The collected supernatant was centrifuged at 12000 × g for 10 min at 4 °C, and the supernatants were further centrifuged at 100000 × g for 1 h at 4 °C. Membrane pellets were resuspended in PBS, protein concentration was measured, and samples were aliquoted and stored at −80 °C until use.
The fluorescence assay to measure FAAH activity was performed in 96-well black plates (Black OptiPlate-96F; PerkinElmer, Massachusetts, USA): 2.5 μg of hFAAH membrane preparation was preincubated for 50 min at 37 °C in 190 μL of assay buffer (50 mM Tris HCl pH 7.4, 0.05% fatty acid free BSA), with 5 μL of inhibitor or 5 μL of DMSO to measure FAAH total activity. […] The reaction was carried out for 45 min at 37 °C, and fluorescence was measured with an EnVision 2014 Multilabel Reader (PerkinElmer, Massachusetts, USA) (excitation wavelength 355 nm/emission wavelength 460 nm). […]

Q: With `CC(C)CNC(=O)n1c(=O)oc2cc(C3CCN(C)CC3)ccc21` [22m, N-Isobutyl-6-(1-methyl-4-piperidyl)-2-oxo-1,3-benzoxazole-3-carboxamide] as the molecule, how does the solubility at 1 h [1] read?
A: 240 µM (≈ 79.5 µg/mL)

Q: What about the IC50 [2] of the same molecule?
A: 70 nM
